Patent publication US20130040882A1, “USE OF FIBROBLAST GROWTH FACTOR FRAGMENTS” (NOVARTIS AG, priority 2003, published 2013)
“And” between values parts separate entries of the source, which are not always exact repeats. Identical values can stand only once.

Assay: Salmon calcitonin/PTS893 monkey study: haematology;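 note: haematology parameters were measured in blood collected from a peripheral vein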
Type: in vivo, cynomolgus monkeys (Macaca fascicularis)
Protocol: Animals were fasted overnight before blood collection but had free access to water. Blood samples were taken from a peripheral vein. Standard haematology and clinical chemistry analysis were performed once during pretest and at the end of the treatment period. Blood samples were collected from each animal at the same intervals as described for the clinical chemistry investigations. The serum samples were deep-frozen (approximately −80° C.) until analyses for hormone determination.

## Leu8, Asp10, Lysll, A1a16, G1n18, Thr33, A1a34 human PTH 1-34 [PTS893, Leu8, Asp10, Lysll, A1a16, G1n18, Thr33, A1a34 human PTH 1-34 [hPTH(1-34)]]
females, d7
  Haematology L: 6.29 pg/ml and 5.87 pg/ml
  Haematology M: 0.44 nmol/l
  Haematology MCH: 18.9 ng/ml and 19.0 ng/ml
  Haematology N: 10.8 nmol/l and 5.49 nmol/l
  Haematology PCV: 0.41 mU/l and 0.43 mU/l
  Haematology PLAT: 525 nmol/l and 382 nmol/l
  Haematology RBC: 6.2 nmol/l and 6.4 nmol/l
females, d13
  Haematology E: 0.21 mUI/l and 0.29 mUI/l
  Haematology HB: 11.3
  Haematology L: 5.81 pg/ml and 5.21 pg/ml
  Haematology MCH: 19.3 ng/ml and 19.2 ng/ml
  Haematology MCHC: 28.6 pg/ml and 29.2 pg/ml
  Haematology N: 6.36 nmol/l and 4.18 nmol/l
  Haematology PCV: 0.40 mU/l and 0.39 mU/l
  Haematology PLAT: 496 nmol/l and 309 nmol/l
  Haematology RBC: 5.9 nmol/l
females, d−8 (before dosing)
  Haematology L: 3.92 pg/ml and 4.40 pg/ml
  Haematology M: 0.80 nmol/l and 0.54 nmol/l
  Haematology MCH: 19.3 ng/ml
  Haematology MCHC: 30.6 pg/ml and 30.2 pg/ml
  Haematology N: 5.34 nmol/l and 9.05 nmol/l
  Haematology PCV: 0.44 mU/l and 0.43 mU/l
  Haematology RBC: 6.9 nmol/l and 6.7 nmol/l
males, d7
  Haematology B: 0.02 G/l and 0.03 G/l
  Haematology HB: 11.3 g/dl and 11.9 g/dl
  Haematology L: 5.91 G/l and 5.30 G/l
  Haematology MCH: 17.7 pg and 20.2 pg
  Haematology MCHC: 29.3 g/dl and 30.2 g/dl
  Haematology MCV: 60 fl and 67 fl
  Haematology PCV: 0.38 l/l and 0.40 l/l
  Haematology PLAT: 456 G/l and 589 G/l
  Haematology RBC: 6.4 T/l and 5.9 T/l
  Haematology WBC: 8.4 G/l and 15.0 G/l
males, d13
  Haematology B: 0.04 G/l and 0.03 G/l
  Haematology HB: 11.7 g/dl and 11.8 g/dl
  Haematology L: 5.37 G/l and 4.86 G/l
  Haematology M: 0.27 G/l and 0.46 G/l
  Haematology MCH: 17.3 pg and 20.3 pg
  Haematology MCHC: 27.5 g/dl and 29.2 g/dl
  Haematology MCV: 63 fl and 70 fl
  Haematology PCV: 0.43 l/l and 0.41 l/l
  Haematology PLAT: 330 G/l and 452 G/l
  Haematology RBC: 6.8 T/l and 5.8 T/l
  Haematology WBC: 8.8 G/l and 11.9 G/l
males, d−6 (before dosing)
  Haematology HB: 13.6 g/dl and 13.2 g/dl
  Haematology L: 5.07 G/l and 3.99 G/l
  Haematology MCH: 18.0 pg and 20.4 pg
  Haematology MCHC: 31.5 g/dl and 33.1 g/dl
  Haematology MCV: 57 fl and 62 fl
  Haematology N: 4.45 G/l and 4.80 G/l
  Haematology PCV: 0.43 l/l and 0.40 l/l
  Haematology PLAT: 325 G/l and 459 G/l
  Haematology RBC: 7.6 T/l and 6.5 T/l
  Haematology WBC: 10.4 G/l and 9.1 G/l
